The source of these data is PMC3435245, “D-Alanylation of Lipoteichoic Acids Confers Resistance to Cationic Peptides in Group B Streptococcus by Increasing the Cell Wall Density” (PLoS Pathogens, 2012).

In brackets after ≈: the same amount, converted by molar mass. Where a SMILES comes first, the peptide text is derived from it. [ ]: non-standard residue; d: D form.

One data set has as its system GBS NEM316 WT strain. It counts as cell-based, Streptococcus agalactiae. Conditions: Todd-Hewitt broth with 100 mM HEPES, 2×10^6 CFU, 96-well polypropylene microplate, overnight 37°C, OD600 nm; average of triplicate measurements. The method, then:
(§1) The MICs of each antimicrobial peptide were tested in Todd-Hewitt broth (THB) buffered with 100 mM HEPES in 96-well polypropylene microplates (Costar, Cambridge, MA) by a dilution method. Bacteria (2×10^6 CFU) were added in triplicates to wells containing increasing concentrations of the antimicrobial peptides. Plates were incubated at 37°C with shaking overnight and then read (OD600 nm) using microplate reader (Labsystems Multiskanat) for bacterial growth. The MICs90 was considered to be the peptide concentration that inhibited 90% growth.

Another data set concerns GBS ΔmprF mutant. Kind of data set: MIC90 by dilution method, GBS ΔmprF. The format is cell-based, Streptococcus agalactiae. As to conditions: Todd-Hewitt broth with 100 mM HEPES, 2×10^6 CFU, 96-well polypropylene microplate, overnight 37°C, OD600 nm; average of triplicate measurements. As for the experimental part: as §1
The subject of another data set is GBS ΔsrtA mutant. Kind of data set: MIC90 by dilution method, GBS ΔsrtA. The format is cell-based, Streptococcus agalactiae. Conditions: Todd-Hewitt broth with 100 mM HEPES, 2×10^6 CFU, 96-well polypropylene microplate, overnight 37°C, OD600 nm; average of triplicate measurements. As for the experimental part: as §1
The nature of data set [1]: RP-HPLC hydrophobicity (% AcN at elution). It counts as physicochemical. Conditions: chromatographic, C4 reverse analytical column; eluted in 40 min, linear gradient of acetonitrile 30 to 70% v/v in water containing TFA (0.05% v/v). As for the experimental part:
The procedure conducted as described previously. Briefly, peptides were synthesized using the Fmoc solid phase method on Rink amide resin ([…]). For fluorescent labeling of the N-terminus of the peptides, resin-bound peptides were treated with NBD or rhodamine dissolved in dimethyl formamide (DMF), washed thoroughly with DMF and then with methylene chloride, dried and then cleaved. […] The peptides were subjected to amino acid and mass spectrometry analysis to confirm their composition.

The subject of the next data set is GBS ΔdltA mutant. Kind of data set: MIC90 by dilution method, GBS ΔdltA. The format is cell-based, Streptococcus agalactiae. As to conditions: Todd-Hewitt broth with 100 mM HEPES, 2×10^6 CFU, 96-well polypropylene microplate, overnight 37°C, OD600 nm; average of triplicate measurements. The method, then: as §1
Another data set has as its system GBS Δlgt Δlsp mutant. Kind of data set: MIC90 by dilution method, GBS Δlgt Δlsp. It counts as cell-based, Streptococcus agalactiae. Conditions: Todd-Hewitt broth with 100 mM HEPES, 2×10^6 CFU, 96-well polypropylene microplate, overnight 37°C, OD600 nm; average of triplicate measurements. As for the experimental part: as §1
The subject of the next data set is GBS WT and dltA strains. Kind of data set: SYTOX green uptake assay (membrane perforation). The format is cell-based, Streptococcus agalactiae. As to conditions: 30 min exposure, 1 µM SYTOX green, sodium phosphate buffer 20 mM pH 7.4, excitation 485 nm, emission 520 nm; triplicates. From the text:
To determine whether altered susceptibility to CAMPs correlates with changes in membrane permeability, we measured the entrance of the cationic dye SYTOX green into the WT and dltA strains. SYTOX green cannot enter intact bacteria unless the membrane is disrupted by external compounds. Upon penetration into bacteria and binding to intracellular nucleic acids, its signal increases drastically. A dose-dependent enhancement of signal intensity was found following exposure to selected CAMPs.
Figure 2 Susceptibility of GBS strains to perforation by CAMPs. Peptide-dependent influx of the vital dye SYTOX green following 30 min exposure of GBS to magainin 2 (A), LL-37 (B), 5D-K6L9 (C) and K5L7 (D). Solid lines represent the WT strain whereas dashed lines represent the dltA muatnt. All readings were normalized by subtracting the basal fluorescence of the dye. Data are means ± SD of triplicate measurements.
Bacteria were washed twice, resuspended in sodium phosphate buffer (SPB, 20 mM, pH 7.4), and incubated with 1 µM SYTOX green for 20 min in the dark with agitation. Bacteria were added to a 96 well black plate (Nunc, Denmark) containing increasing concentrations of CAMPs and the increase in fluorescence, due to penetration and binding of the dye to intracellular DNA, was immediately monitored (excitation of 485 nm and emission of 520 nm). […]

A further data set has as its system GBS ΔcpsD mutant. Kind of data set: MIC90 by dilution method, GBS ΔcpsD. The format is cell-based, Streptococcus agalactiae. Conditions: Todd-Hewitt broth with 100 mM HEPES, 2×10^6 CFU, 96-well polypropylene microplate, overnight 37°C, OD600 nm; average of triplicate measurements. The method, then: as §1

For the compound `CC(C)C[C@H](NC(=O)[C@H](CC(C)C)NC(=O)[C@@H](CCCCN)NC(=O)[C@H](CC(C)C)NC(=O)[C@H](CC(C)C)NC(=O)[C@H](CCCCN)NC(=O)[C@@H](CCCCN)NC(=O)[C@@H](CC(C)C)NC(=O)[C@H](CC(C)C)NC(=O)[C@@H](CCCCN)NC(=O)[C@H](CCCCN)NC(=O)[C@H](CC(C)C)NC(=O)[C@@H](CC(C)C)NC(=O)[C@H](CCCCN)NC(=O)[C@@H](N)CC(C)C)C(N)=O` [5D-K6L9] (H-LK[dL]LK[dK]L[dL][dK]KLL[dK]LL-NH2; N-terminus assumed), the “MIC90, WT” value against GBS NEM316 WT strain turned out to be 4.4 µM (≈ 7.94 µg/mL). In the data set with GBS ΔmprF mutant, the “MIC90, ΔmprF” value came to 4.4 µM (≈ 7.94 µg/mL). Further, the “MIC90, ΔsrtA” value against GBS ΔsrtA mutant is given as 4.4 µM (≈ 7.94 µg/mL). Moreover, the “Hydrophobicity (% AcN)” value in data set [1] is 55.6 % AcN. The “MIC90, ΔdltA” value in the data set with GBS ΔdltA mutant was found to be 2.2 µM (≈ 3.97 µg/mL). Besides, the “MIC90, Δlgt Δlsp” value against GBS Δlgt Δlsp mutant is 4.4 µM (≈ 7.94 µg/mL). In addition, the “SYTOX green influx signal, dltA mutant compared to WT” value with GBS WT and dltA strains was “similarly active on both strains”. In the data set on GBS ΔcpsD mutant, the “MIC90, ΔcpsD” value is recorded as 4.4 µM (≈ 7.94 µg/mL).
